Test results as given in EP4678638A1, “NEW E3 UBIQUITIN LIGASE LIGAND, PROTEIN DEGRADATION AGENT AND USE THEREOF” (priority 2023, dated 2024).

Legend:
RSK1 = target: T1, RSK1 (Homo sapiens, UniProt Q15418); experiment: Western blot degradation of RSK1 (hPBMC); format: cell-based; settings: Table D8
T1 construct: evaluate the effects of the compounds of the present disclosure on the expression of target proteins in cells; endogenous in cells; host or cells: hPBMC
Protocol: (§1) Conventional Western blot assay was performed to evaluate the effects of the compounds of the present disclosure on the expression of target proteins in cells.
(§2) (1) Cell Seeding and Protein Harvesting: The selected cells were processed according to the cell seeding procedure and protein harvesting procedure in Table III-2. Table III-2 Cell Seeding and Protein Harvesting Procedures
(§3) (2) To the collected supernatant, 5X SDS sample loading buffer was added, followed by denaturation at 95°C for 5 minutes. The denatured samples were then separated by SDS-PAGE electrophoresis on a polyacrylamide gel. Proteins were transferred to a nitrocellulose membrane (0.45 µm NC membrane), blocked with blocking buffer at room temperature for 1 hour, and subjected to antibody incubation and development procedures according to the antibody manufacturer's instructions (Cell Signaling Technology).
(§4) Half-Maximal Degradation Concentration value (the drug concentration required for degrading proteins by 50%, abbreviated as DC50) reads method: comparing the grayscale values of Western blot bands from drug-treated samples with those from blank DMSO-treated controls, and identifying the drug concentration range at which the grayscale value is half that of the DMSO-treated control bands.
(§5) DC50 values can be calculated using ImageJ software to measure grayscale values of Western blot bands from drug-treated samples. The concentration-response curve is fitted to estimate the drug concentration corresponding to half the grayscale value.
(§6) Target protein remaining (%) refers to the percentage of target protein remaining in hPBMC cells after treatment with protein degrader compounds.
(§7) Calculation method for target protein remaining (%): Use ImageJ software to measure grayscale values of Western blot bands from drug (protein degrader)-treated samples. The grayscale value of drug-treated bands is divided by that of internal control protein bands, and the resulting quotient is normalized to obtain the relative percentage of remaining target protein after protein degrader treatment.
(§8) Target protein degradation rate (%) = 100% - target protein remaining (%).

RSK2 = target: T2, RSK2 (Homo sapiens, UniProt P51812); experiment: Western blot degradation of RSK2 (hPBMC); format: cell-based; settings: Table D8
T2 construct: evaluate the effects of the compounds of the present disclosure on the expression of target proteins in cells; endogenous in cells; host or cells: hPBMC
Protocol: as §1, §2, §3, §4, §5, §6, §7, §8

T1 sequence (Q15418 whole entry): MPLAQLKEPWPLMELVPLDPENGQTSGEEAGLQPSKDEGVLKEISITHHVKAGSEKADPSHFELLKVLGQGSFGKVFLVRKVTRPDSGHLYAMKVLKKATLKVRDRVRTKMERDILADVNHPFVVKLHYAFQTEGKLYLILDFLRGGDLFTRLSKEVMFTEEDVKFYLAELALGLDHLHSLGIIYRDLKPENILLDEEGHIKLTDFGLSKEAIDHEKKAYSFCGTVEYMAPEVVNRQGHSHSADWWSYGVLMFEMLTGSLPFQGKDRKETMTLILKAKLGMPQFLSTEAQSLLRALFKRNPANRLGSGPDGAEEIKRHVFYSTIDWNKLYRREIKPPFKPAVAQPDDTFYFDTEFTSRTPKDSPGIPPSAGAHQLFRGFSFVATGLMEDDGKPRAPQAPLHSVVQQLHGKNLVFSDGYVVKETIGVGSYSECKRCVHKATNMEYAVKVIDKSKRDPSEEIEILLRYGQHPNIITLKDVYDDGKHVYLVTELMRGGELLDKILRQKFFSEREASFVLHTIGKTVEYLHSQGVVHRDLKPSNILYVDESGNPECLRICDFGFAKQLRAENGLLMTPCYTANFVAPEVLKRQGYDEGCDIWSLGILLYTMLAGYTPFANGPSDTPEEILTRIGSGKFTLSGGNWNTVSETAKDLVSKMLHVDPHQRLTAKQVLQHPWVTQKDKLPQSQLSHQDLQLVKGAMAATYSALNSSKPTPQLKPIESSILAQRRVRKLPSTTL
T2 sequence (P51812 whole entry): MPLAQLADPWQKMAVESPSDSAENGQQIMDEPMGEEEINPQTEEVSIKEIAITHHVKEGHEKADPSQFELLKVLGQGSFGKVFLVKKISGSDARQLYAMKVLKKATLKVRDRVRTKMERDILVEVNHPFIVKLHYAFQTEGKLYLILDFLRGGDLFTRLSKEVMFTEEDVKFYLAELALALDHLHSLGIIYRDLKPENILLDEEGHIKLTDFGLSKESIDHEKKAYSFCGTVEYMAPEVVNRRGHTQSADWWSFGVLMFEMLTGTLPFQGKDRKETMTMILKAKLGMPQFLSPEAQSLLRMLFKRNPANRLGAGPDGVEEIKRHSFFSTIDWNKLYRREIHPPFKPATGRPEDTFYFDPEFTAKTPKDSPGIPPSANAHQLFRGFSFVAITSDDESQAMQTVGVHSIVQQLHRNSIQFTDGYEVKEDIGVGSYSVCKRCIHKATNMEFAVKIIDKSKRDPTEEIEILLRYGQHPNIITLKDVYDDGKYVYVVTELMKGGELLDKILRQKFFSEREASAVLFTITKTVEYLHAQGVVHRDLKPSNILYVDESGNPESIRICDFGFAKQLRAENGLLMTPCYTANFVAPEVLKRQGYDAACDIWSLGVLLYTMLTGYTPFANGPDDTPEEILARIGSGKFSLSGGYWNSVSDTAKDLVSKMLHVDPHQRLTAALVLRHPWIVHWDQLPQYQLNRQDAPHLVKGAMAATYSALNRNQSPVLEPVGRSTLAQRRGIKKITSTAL

SMILES	Degradation of substrate protein RSK1 (substrate protein remaining %) (RSK1)	Degradation of substrate protein RSK2 (substrate protein remaining %) (RSK2)
C[C@@H]1CNC(=O)c2cc3ccc(C(=O)Nc4cnn(Cc5ccc(N6CCC(N(C)Cc7cccc(N8CCC(=O)NC8=O)c7)CC6)cc5)c4)nc3n21 [GT-07939, (R)-N-(1-(4-(4-((3-(2,4-dioxotetrahydropyrimidin-1(2H)-yl)benzyl)(methyl)amino)piperidin-1-yl)benzyl)-1H-pyrazol-4-yl)-9-methyl-6-oxo-6,7,8,9-tetrahydropyrido[3',2':4,5]py rrolo[1,2-a]pyrazine-2-carboxamide]	A (A is defined as 0% ≤ substrate protein remaining % ≤ 80%)	B (B is defined as substrate protein remaining % > 80%)
C[C@@H]1CNC(=O)c2cc3ccc(C(=O)Nc4cnn(Cc5ccc(N6CCC(N(C)Cc7ccc(C8CCC(=O)NC8=O)cc7)CC6)cc5)c4)nc3n21 (stereo partly drawn) [GT-07937, (9R)-N-(1-(4-(4-((4-(2,6-dioxopiperidin-3-yl)benzyl)(methyl)amino)piperidin-1-yl)benzyl)-1H-pyrazol-4-yl)-9-methyl-6-oxo-6,7,8,9-tetrahydropyrido[3',2':4,5]py rrolo[1,2-a]pyrazine-2-carboxamide]	A (A is defined as 0% ≤ substrate protein remaining % ≤ 80%)	B (B is defined as substrate protein remaining % > 80%)
C[C@@H]1CNC(=O)c2cc3ccc(C(=O)Nc4cnn(Cc5ccc(N6CCC(N(C)Cc7cncc(N8CCC(=O)NC8=O)c7)CC6)cc5)c4)nc3n21 [GT-07945, (R)-N-(1-(4-(4-(((5-(2,4-dioxotetrahydropyrimidin-1(2H)-yl)pyridin-3-yl)methyl)(methyl)amino)piperidin-1-yl)benzyl)-1H-pyrazol-4-yl)-9-methyl-6-oxo-6,7,8,9-tetrahydropyrido[3',2':4,5]py rrolo[1,2-a]pyrazine-2-carboxamide]	A (A is defined as 0% ≤ substrate protein remaining % ≤ 80%)	A (A is defined as 0% ≤ substrate protein remaining % ≤ 80%)
C[C@@H]1CNC(=O)c2cc3ccc(C(=O)Nc4cnn(Cc5ccc(N6CCN(Cc7ccc(N8CCC(=O)NC8=O)cc7)CC6)cc5)c4)nc3n21 [GT-07927, (R)-N-(1-(4-(4-(4-(2,4-dioxotetrahydropyrimidin-1(2H)-yl)benzyl)piperazin-1-yl)benzyl)-1H-pyrazol-4-yl)-9-methyl-6-oxo-6,7,8,9-tetrahydropyrido[3',2':4,5]py rrolo[1,2-a]pyrazine-2-carboxamide]	A (A is defined as 0% ≤ substrate protein remaining % ≤ 80%)	A (A is defined as 0% ≤ substrate protein remaining % ≤ 80%)
C[C@@H]1CNC(=O)c2cc3ccc(C(=O)Nc4cnn(Cc5ccc(N6CCN(Cc7cncc(C8CCC(=O)NC8=O)c7)CC6)cc5)c4)nc3n21 (stereo partly drawn) [GT-07934, (9R)-N-(1-(4-(4-((5-(2,6-dioxopiperidin-3-yl)pyridin-3-yl)methyl)piperazin-1-yl)benzyl)-1H-pyrazol-4-yl)-9-methyl-6-oxo-6,7,8,9-tetrahydropyrido[3',2':4,5]py rrolo[1,2-a]pyrazine-2-carboxamide]	A (A is defined as 0% ≤ substrate protein remaining % ≤ 80%)	B (B is defined as substrate protein remaining % > 80%)
C[C@@H]1CNC(=O)c2cc3ccc(C(=O)Nc4cnn(Cc5ccc(N6CCN(Cc7cccc(NC8CCC(=O)NC8=O)c7)CC6)cc5)c4)nc3n21 (stereo partly drawn) [GT-07931, (9R)-N-(1-(4-(4-(3-((2,6-dioxopiperidin-3-yl)amino)benzyl)piperazin-1-yl)benzyl)-1H-pyrazol-4-yl)-9-methyl-6-oxo-6,7,8,9-tetrahydropyrido[3',2':4,5]py rrolo[1,2-a]pyrazine-2-carboxamide]	A (A is defined as 0% ≤ substrate protein remaining % ≤ 80%)	A (A is defined as 0% ≤ substrate protein remaining % ≤ 80%)
C[C@@H]1CNC(=O)c2cc3ccc(C(=O)Nc4cnn(Cc5ccc(N6CCC(N7CCN(Cc8ccc(N9CCC(=O)NC9=O)nc8)CC7)CC6)cc5)c4)nc3n21 [GT-07955, (R)-N-(1-(4-(4-(4-((6-(2,4-dioxotetrahydropyrimidin-1(2H)-yl)pyridin-3-yl)methyl)piperazin-1-yl)piperidin-1-yl)benzyl)-1H-pyrazol-4-yl)-9-methyl-6-oxo-6,7,8,9-tetrahydropyrido[3',2':4,5]pyrrolo[1,2-a]pyrazine-2-carboxamide]	A (A is defined as 0% ≤ substrate protein remaining % ≤ 80%)	A (A is defined as 0% ≤ substrate protein remaining % ≤ 80%)
C[C@@H]1CNC(=O)c2cc3ccc(C(=O)Nc4cnn(Cc5ccc(N6CCC(N(C)Cc7cccc(NC8CCC(=O)NC8=O)c7)CC6)cc5)c4)nc3n21 (stereo partly drawn) [GT-07942, (9R)-N-(1-(4-(4-((3-((2,6-dioxopiperidin-3-yl)amino)benzyl)(methyl)amino)piperidin-1-yl)benzyl)-1H-pyrazol-4-yl)-9-methyl-6-oxo-6,7,8,9-tetrahydropyrido[3',2':4,5]py rrolo[1,2-a]pyrazine-2-carboxamide]	A (A is defined as 0% ≤ substrate protein remaining % ≤ 80%)	A (A is defined as 0% ≤ substrate protein remaining % ≤ 80%)
C[C@@H]1CNC(=O)c2cc3ccc(C(=O)Nc4cnn(Cc5ccc(N6CCC(N7CCN(Cc8ccnc(N9CCC(=O)NC9=O)c8)CC7)CC6)cc5)c4)nc3n21 [GT-07958, (R)-N-(1-(4-(4-(4-((2-(2,4-dioxotetrahydropyrimidin-1(2H)-yl)pyridin-4-yl)methyl)piperazin-1-yl)piperidin-1-yl)benzyl)-1H-pyrazol-4-yl)-9-methyl-6-oxo-6,7,8,9-tetrahydropyrido[3',2':4,5]pyrrolo[1,2-a]pyrazine-2-carboxamide]	A (A is defined as 0% ≤ substrate protein remaining % ≤ 80%)	A (A is defined as 0% ≤ substrate protein remaining % ≤ 80%)
C[C@@H]1CNC(=O)c2cc3ccc(C(=O)Nc4cnn(Cc5ccc(N6CCN(Cc7cc(N8CCC(=O)NC8=O)cnc7F)CC6)cc5)c4)nc3n21 [GT-07935, (R)-N-(1-(4-(4-((5-(2,4-dioxotetrahydropyrimidin-1(2H)-yl)-2-fluoropyridin-3-yl)methyl)piperazin-1-yl)benzyl)-1H-pyrazol-4-yl)-9-methyl-6-oxo-6,7,8,9-tetrahydropyrido[3',2':4,5]py rrolo[1,2-a]pyrazine-2-carboxamide]	A (A is defined as 0% ≤ substrate protein remaining % ≤ 80%)	B (B is defined as substrate protein remaining % > 80%)
C[C@@H]1CNC(=O)c2cc3ccc(C(=O)Nc4cnn(Cc5ccc(N6CCC(N(C)Cc7cc(N8CCC(=O)NC8=O)cnc7F)CC6)cc5)c4)nc3n21 [GT-07949, (R)-N-(1-(4-(4-(((5-(2,4-dioxotetrahydropyrimidin-1(2H)-yl)-2-fluoropyridin-3-yl)methyl)(methyl)amino)piperidin-1-yl)benzyl)-1H-pyrazol-4-yl)-9-methyl-6-oxo-6,7,8,9-tetrahydropyrido[3',2':4,5]py rrolo[1,2-a]pyrazine-2-carboxamide]	A (A is defined as 0% ≤ substrate protein remaining % ≤ 80%)	A (A is defined as 0% ≤ substrate protein remaining % ≤ 80%)
C[C@@H]1CNC(=O)c2cc3ccc(C(=O)Nc4cnn(Cc5ccc(NCc6cc(N7CCC(=O)NC7=O)ncc6F)cc5)c4)nc3n21 [GT-07794, (R)-N-(1-(4-(((2-(2,4-dioxotetrahydropyrimidin-1(2H)-yl)-5-fluoropyridin-4-yl)methyl)amino)benzyl)-1H-pyrazol-4-yl)-9-methyl-6-oxo-6,7,8,9-tetrahydropyrido[3',2':4,5]pyrrolo[1,2-a]pyrazine-2-carboxamide]	A (A is defined as 0% ≤ substrate protein remaining % ≤ 80%)	B (B is defined as substrate protein remaining % > 80%)
C[C@@H]1CNC(=O)c2cc3ccc(C(=O)Nc4cnn(Cc5ccc(N6CCC(N7CCN(Cc8cncc(N9CCC(=O)NC9=O)c8)CC7)CC6)cc5)c4)nc3n21 [GT-07959, (R)-N-(1-(4-(4-(4-((5-(2,4-dioxotetrahydropyrimidin-1(2H)-yl)pyridin-3-yl)methyl)piperazin-1-yl)piperidin-1-yl)benzyl)-1H-pyrazol-4-yl)-9-methyl-6-oxo-6,7,8,9-tetrahydropyrido[3',2':4,5]pyrrolo[1,2-a]pyrazine-2-carboxamide]	A (A is defined as 0% ≤ substrate protein remaining % ≤ 80%)	A (A is defined as 0% ≤ substrate protein remaining % ≤ 80%)
